{"source": "patent US10973758B2", "about": "(O.D. Ocular Discovery Ltd., priority 2013, dated 2021)", "key": {"[1]": {"experiment": "Dissolution in pH-adjusted aqueous solution", "format": "physicochemical", "conditions": "pH adjusted to ˜6.6 (6.5-6.7)", "excerpt": "The natural pH of tear fluid is 7.4; however, discomfort for the user will not be felt as long as the pH of the administered medication stays in the range of 6.6-7.8 (Sampath Kumar et al., “Recent Challenges and Advances in Ophthalmic Drug Delivery System,” in The Pharma Innovation, Vol. 1, No. 4 (2012)). Others administer eye drops at a pH of 5.5 and find this pH to be optimal."}, "[2]": {"conditions": "cited from earlier work"}, "[3]": {"conditions": "cited from earlier work; for peak plasma level: oral"}, "[4]": {"test_system": "ocular inflammatory disease", "conditions": "cited from earlier work"}, "nitric oxide levels": {"test_system": "nitric oxide levels", "conditions": "cited from earlier work"}, "cAMP levels": {"test_system": "cAMP levels", "conditions": "in-vitro, in comparison to a control; cited from earlier work"}, "thrombus formation": {"test_system": "thrombus formation", "conditions": "arterial circulation of the brain, rabbit model; cited from earlier work"}}, "note": "Like-named read-outs stand apart in the source and are kept apart here.", "data": [{"smiles": "OCCN(CCO)c1nc(N2CCCCC2)c2nc(N(CCO)CCO)nc(N3CCCCC3)c2n1", "note": "[dipyridamole, 2,6-bis (diethanolamino)-4,8-dipiperidinopyrimido [5,4-d] pyrimidine]", "values": [{"measurement": "dissolution in aqueous solution", "setting": "[1]", "value": "fully dissolves"}, {"measurement": "solubility in methanol", "setting": "[2]; methanol", "value": "very soluble"}, {"measurement": "solubility in water", "setting": "[2]; water", "value": "practically insoluble"}, {"measurement": "half-life, third phase of tri-exponential decline", "setting": "[3]; IV or oral 20-50 mg, followed up to 60 hours", "value": "10 to 12", "unit": "h"}, {"measurement": "peak plasma level", "setting": "[3]; after a 25 mg dose", "value": "about 0.5 g/mL"}, {"measurement": "peak plasma level", "setting": "[3]; after a 75 mg dose", "value": 1.6, "unit": "µg/mL"}, {"measurement": "distribution half-life", "setting": "[3]; humans, after oral administration", "value": "about 3 hours"}, {"measurement": "time to peak plasma levels", "setting": "[3]; humans, following oral administration", "value": "1 to 3", "unit": "h"}, {"measurement": "distribution half-life", "setting": "[3]; humans, intravenous (IV) administration", "value": "about 25 minutes"}, {"measurement": "effect in ocular inflammatory disease", "setting": "[4]; systemically administered", "value": "significant beneficial effect"}, {"measurement": "effect in ocular inflammatory disease", "setting": "[4]; topically administered (in liquid formulation)", "value": "ineffective"}, {"measurement": "effect on nitric oxide levels", "setting": "nitric oxide levels", "value": "increases nitric oxide levels"}, {"measurement": "effect on cAMP levels", "setting": "cAMP levels", "value": "negligible effect"}, {"measurement": "effect on thrombus formation", "setting": "thrombus formation", "value": "reduce thrombus formation"}]}]}
